Reference: patent publication US20120029187A1, “HALOALKYLSULFONANILIDE DERIVATIVE” (Nissan Chemical Industries, Ltd., priority 2009, published 2012)

Legend:
Format in all cases: in vivo
barnyardgrass [1] = experiment: Test Example 3: herbicidal effects in soil treatment; conditions: dose 3.2 g/a
Procedure, shortened: (§1)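 Seeds were sown in sterilized diluvial soil and covered with about 1.5 cm of soil. Compounds, formulated as emulsifiable concentrates and diluted with water, were sprayed evenly over the soil surface at set doses in g/a. Herbicidal effect was scored on a rating scale three weeks later.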

posumbu knotweed [2] = experiment: as above; conditions: dose 3.2 g/a
Procedure, shortened: as §1

common ragweed [3] = experiment: as above; conditions: dose 3.2 g/a
Procedure, shortened: as §1

common lambsquater [4] = experiment: as above; conditions: dose 3.2 g/a
Procedure, shortened: as §1

Italian ryegrass [5] = experiment: as above; conditions: dose 3.2 g/a
Procedure, shortened: as §1

common chickweed [6] = experiment: as above; conditions: dose 3.2 g/a
Procedure, shortened: as §1

velvetleaf [7] = experiment: as above; conditions: dose 3.2 g/a
Procedure, shortened: as §1

giant foxtail [8] = experiment: as above; conditions: dose 3.2 g/a
Procedure, shortened: as §1

large crabgrass [9] = experiment: as above; conditions: dose 3.2 g/a
Procedure, shortened: as §1

redroot pigweed [10] = experiment: as above; conditions: dose 3.2 g/a
Procedure, shortened: as §1

water foxtail [11] = experiment: as above; conditions: dose 3.2 g/a
Procedure, shortened: as §1

transplanted rice = experiment: Test Example 1: preemergence treatment under submerged conditions, effect on crop; conditions: dose 2.52 g/a
Procedure, shortened: (§2)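 Alluvial soil flooded to 4 cm depth; barnyardgrass, bulrush and ducksalad sown and 2.5-leaf rice seedlings transplanted. Same day, water-diluted emulsifiable concentrates applied to the water surface at set doses (g/a). Kept at 25–30 °C in greenhouse; effects scored 0–5 by mortality after three weeks.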

barnyardgrass [12] = experiment: Test Example 2: herbicidal effects during the vegetation period under submerged conditions; conditions: treatment during the vegetation period under submerged conditions; dose 2.52 g/a
Procedure, shortened: (§3)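 Barnyardgrass, bulrush and ducksalad were co-sown in alluvial soil flooded to 4 cm and grown in a greenhouse at 25 to 30° C. At the 1- or 2-leaf stage, water-diluted emulsifiable concentrates went onto the water surface at set doses (g/a). Herbicidal effect was scored three weeks later on a graded scale.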

ducksalad [13] = experiment: as above; conditions: treatment during the vegetation period under submerged conditions; dose 2.52 g/a
Procedure, shortened: as §3

bulrush [14] = experiment: as above; conditions: treatment during the vegetation period under submerged conditions; dose 2.52 g/a
Procedure, shortened: as §3

barnyardgrass [15] = experiment: Test Example 1: herbicidal effects in preemergence treatment under submerged conditions; conditions: dose 2.52 g/a
Procedure, shortened: as §2

ducksalad [16] = experiment: as above; conditions: dose 2.52 g/a
Procedure, shortened: as §2

bulrush [17] = experiment: as above; conditions: dose 2.52 g/a
Procedure, shortened: as §2

barnyardgrass [18] = experiment: Test Example 4: herbicidal effect in foliage treatment; conditions: dose 3.2 g/a, three weeks after application
Procedure, shortened: (§4)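 Weeds and crops sown in sterilized diluvial soil under ~1.5 cm cover and grown in greenhouse at 25 to 30° C. At 14 days, water-diluted emulsifiable concentrate sprayed onto foliage at set doses (g/a); herbicidal effect scored on a rating scale three weeks after application.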

beadstraw = experiment: as above; conditions: dose 3.2 g/a, three weeks after application
Procedure, shortened: as §4

posumbu knotweed [19] = experiment: as above; conditions: dose 3.2 g/a, three weeks after application
Procedure, shortened: as §4

common ragweed [20] = experiment: as above; conditions: dose 3.2 g/a, three weeks after application
Procedure, shortened: as §4

common lambsquater [21] = experiment: as above; conditions: dose 3.2 g/a, three weeks after application
Procedure, shortened: as §4

Italian ryegrass [22] = experiment: as above; conditions: dose 3.2 g/a, three weeks after application
Procedure, shortened: as §4

common chickweed [23] = experiment: as above; conditions: dose 3.2 g/a, three weeks after application
Procedure, shortened: as §4

velvetleaf [24] = experiment: as above; conditions: dose 3.2 g/a, three weeks after application
Procedure, shortened: as §4

giant foxtail [25] = experiment: as above; conditions: dose 3.2 g/a, three weeks after application
Procedure, shortened: as §4

large crabgrass [26] = experiment: as above; conditions: dose 3.2 g/a, three weeks after application
Procedure, shortened: as §4

redroot pigweed [27] = experiment: as above; conditions: dose 3.2 g/a, three weeks after application
Procedure, shortened: as §4

water foxtail [28] = experiment: as above; conditions: dose 3.2 g/a, three weeks after application
Procedure, shortened: as §4

CC1(C(F)(F)F)CC(=O)N(Cc2ccccc2NS(=O)(=O)C(F)(F)F)CO1 (stereo not drawn) [II-46] was tested, and the “A: barnyardgrass, herbicidal effect (evaluation scale 0-5)” value (barnyardgrass [1]) was 5 (mortality of 90% or above (nearly complete death)), the “M: posumbu knotweed, herbicidal effect (evaluation scale 0-5)” value (posumbu knotweed [2]) was 3 (mortality of at least 40% and less than 70%) and the “J: common ragweed, herbicidal effect (evaluation scale 0-5)” value (common ragweed [3]) was 4 (mortality of at least 70% and less than 90%). For the same compound, the “L: common lambsquater, herbicidal effect (evaluation scale 0-5)” value (common lambsquater [4]) was 4 (mortality of at least 70% and less than 90%), the “H: Italian ryegrass, herbicidal effect (evaluation scale 0-5)” value (Italian ryegrass [5]) was 3 (mortality of at least 40% and less than 70%) and the “N: common chickweed, herbicidal effect (evaluation scale 0-5)” value (common chickweed [6]) was 4 (mortality of at least 70% and less than 90%). The “I: velvetleaf, herbicidal effect (evaluation scale 0-5)” value (velvetleaf [7]) was 3 (mortality of at least 40% and less than 70%), the “E: giant foxtail, herbicidal effect (evaluation scale 0-5)” value (giant foxtail [8]) was 5 (mortality of 90% or above (nearly complete death)) and the “D: large crabgrass, herbicidal effect (evaluation scale 0-5)” value (large crabgrass [9]) was 5 (mortality of 90% or above (nearly complete death)). The “K: redroot pigweed, herbicidal effect (evaluation scale 0-5)” value (redroot pigweed [10]) was 0 (mortality of less than 5% (almost ineffective)), the “G: water foxtail, herbicidal effect (evaluation scale 0-5)” value (water foxtail [11]) was 5 (mortality of 90% or above (nearly complete death)) and the “a: transplanted rice, effect on crop (evaluation scale 0-5)” value (transplanted rice) was 0 (mortality of less than 5% (almost ineffective)). The “A: barnyardgrass, herbicidal effect (evaluation scale 0-5)” value (barnyardgrass [12]) was 4 (mortality of at least 70% and less than 90%), the “C: ducksalad, herbicidal effect (evaluation scale 0-5)” value (ducksalad [13]) was 5 (mortality of 90% or above (nearly complete death)) and the “B: bulrush, herbicidal effect (evaluation scale 0-5)” value (bulrush [14]) was 5 (mortality of 90% or above (nearly complete death)). The “A: barnyardgrass, herbicidal effect (evaluation scale 0-5)” value (barnyardgrass [15]) was 4 (mortality of at least 70% and less than 90%), the “C: ducksalad, herbicidal effect (evaluation scale 0-5)” value (ducksalad [16]) was 5 (mortality of 90% or above (nearly complete death)) and the “B: bulrush, herbicidal effect (evaluation scale 0-5)” value (bulrush [17]) was 5 (mortality of 90% or above (nearly complete death)). The “A: barnyardgrass, herbicidal effect” value (barnyardgrass [18]) was 4 (mortality of at least 70% and less than 90%), the “O: beadstraw, herbicidal effect” value (beadstraw) was 4 (mortality of at least 70% and less than 90%) and the “M: posumbu knotweed, herbicidal effect” value (posumbu knotweed [19]) was 2 (mortality of at least 20% and less than 40%). For the same compound, the “J: common ragweed, herbicidal effect” value (common ragweed [20]) was 3 (mortality of at least 40% and less than 70%), the “L: common lambsquater, herbicidal effect” value (common lambsquater [21]) was 2 (mortality of at least 20% and less than 40%) and the “H: Italian ryegrass, herbicidal effect” value (Italian ryegrass [22]) was 0 (mortality of less than 5% (almost ineffective)). The “N: common chickweed, herbicidal effect” value (common chickweed [23]) was 4 (mortality of at least 70% and less than 90%), the “I: velvetleaf, herbicidal effect” value (velvetleaf [24]) was 1 (mortality of at least 5% and less than 20%) and the “E: giant foxtail, herbicidal effect” value (giant foxtail [25]) was 4 (mortality of at least 70% and less than 90%). For the same compound, the “D: large crabgrass, herbicidal effect” value (large crabgrass [26]) was 4 (mortality of at least 70% and less than 90%), the “K: redroot pigweed, herbicidal effect” value (redroot pigweed [27]) was 0 (mortality of less than 5% (almost ineffective)) and the “G: water foxtail, herbicidal effect” value (water foxtail [28]) was 2 (mortality of at least 20% and less than 40%).
